# Test results published in patent US20240132431A1, “METHOD FOR ALKYLATING ACIDIC FUNCTIONAL GROUP” (Chugai Seiyaku Kabushiki Kaisha, priority 2021, published 2024).
# Target: T1, Bcl-2 protein (Recombinant Human Bcl-2 Protein) (Homo sapiens, UniProt P10415)
# T1 construct: purchased Novus NBP2-34889
# Experiment: Binding evaluation of mixture library compounds to Bcl-2 using AS-MS (affinity selection mass spectrometry)
# Summary of the method: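 ASMS Ratio (%) was calculated as (A−C)/B×100, where A is the protein sample after SEC, B the protein-free sample without SEC and C the protein-free sample after SEC. Each compound was at […] in a 1200-member pool with 20 μM Bcl-2, incubated 1 h at 23° C.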
# T1 sequence (P10415 whole entry): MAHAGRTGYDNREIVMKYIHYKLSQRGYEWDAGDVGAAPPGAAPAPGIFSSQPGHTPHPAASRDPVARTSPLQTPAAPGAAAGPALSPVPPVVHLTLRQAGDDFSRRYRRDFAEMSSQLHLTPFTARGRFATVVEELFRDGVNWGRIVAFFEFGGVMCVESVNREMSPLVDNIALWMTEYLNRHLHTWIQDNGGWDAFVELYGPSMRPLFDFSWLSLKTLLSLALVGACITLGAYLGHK
Compound,ASMS ratio (%) (n = 1),ASMS ratio (%) (n = 2),"ASMS ratio (%) n = 1 (AS-MS, mixture library, Bcl-2, replicate n = 1, ASMS Ratio(%)=(A−C)/B×100)","ASMS ratio (%) n = 2 (AS-MS, mixture library, Bcl-2, replicate n = 2, ASMS Ratio(%)=(A−C)/B×100)"
"CCOc1cncc(-c2ccc(CN3CCN(c4ccc(C(=O)NS(=O)(=O)CCC(F)(F)F)nn4)CC3)cc2C)c1 [B2N074-01, 6-[4-[[4-(5-Ethoxypyridin-3-yl)-3-methylphenyl]methyl]piperazin-1-yl]-N-(3,3,3-trifluoropropylsulfonyl)pyridazine-3-carboxamide]",0.0%,0.0%,,
"CCOc1cncc(-c2ccc(CN3CCN(c4ccc(C(=O)NS(=O)(=O)CCC(F)(F)F)nn4)CC3)cc2F)c1 [B2N078-01, 6-[4-[[4-(5-Ethoxypyridin-3-yl)-3-fluorophenyl]methyl]piperazin-1-yl]-N-(3,3,3-trifluoropropylsulfonyl)pyridazine-3-carboxamide]",0.0%,0.0%,,
CCOc1cncc(-c2cc(CN3CCN(c4ccc(C(=O)NS(=O)(=O)CCC(F)(F)F)nn4)CC3)cc(OCC)c2)c1 [B2N082-01],2.5%,2.8%,,
"CCOc1cncc(-c2cc(CN3CCN(c4ccc(C(=O)NS(=O)(=O)CCC(F)(F)F)nn4)CC3)cc(OC(C)C)c2)c1 [B2N084-01, 6-[4-[[3-(5-Ethoxypyridin-3-yl)-5-propan-2-yloxyphenyl]methyl]piperazin-1-yl]-N-(3,3,3-trifluoropropylsulfonyl)pyridazine-3-carboxamide]",0.0%,0.0%,,
"CCOc1cncc(-c2cc(CN3CCN(c4ccc(C(=O)NS(=O)(=O)CCC(F)(F)F)nn4)CC3)cc(C(F)(F)F)c2)c1 [B2N088-01, 6-[4-[3-(5-Ethoxypyridin-3-yl)-5-(trifluoromethyl)phenylmethyl]piperazin-1-yl]-N-(3,3,3-trifluoropropylsulfonyl)pyridazine-3-carboxamide]",0.0%,0.0%,,
"CCOc1cncc(-c2cc(CN3CCN(c4ccc(C(=O)NS(=O)(=O)CCC(F)(F)F)nn4)CC3)cc(OC(F)(F)F)c2)c1 [B2N090-01, 6-[4-[[3-(5-Ethoxypyridin-3-yl)-5-(trifluoromethoxy)phenyl]methyl]piperazin-1-yl]-N-(3,3,3-trifluoropropylsulfonyl)pyridazine-3-carboxamide]",0.0%,0.0%,,
"CCOc1cncc(-c2csc(CN3CCN(c4ccc(C(=O)NS(=O)(=O)CCC(F)(F)F)nn4)CC3)c2)c1 [B2N094-01, 6-[4-[[4-(5-Ethoxypyridin-3-yl)thiophen-2-yl]methyl]piperazin-1-yl]-N-(3,3,3-trifluoropropylsulfonyl)pyridazine-3-carboxamide]",0.0%,0.0%,,
"CCOc1cccc(-c2ccc(C(C)N3CCN(c4ccc(C(=O)NS(=O)(=O)CCC(F)(F)F)cc4)CC3)cc2)c1 (stereo not drawn) [B2N097-01, 4-[4-[1-[4-(3-Ethoxyphenyl)phenyl]ethyl]piperazin-1-yl]-N-(3,3,3-trifluoropropylsulfonyl)benzamide]",0.0%,0.0%,,
"CCOc1cncc(-c2ccc(C(C)N3CCN(c4ccc(C(=O)NS(=O)(=O)CCC(F)(F)F)cc4)CC3)cc2)c1 (stereo not drawn) [B2N098-01, 4-[4-[1-[4-(5-Ethoxypyridin-3-yl)phenyl]ethyl]piperazin-1-yl]-N-(3,3,3-trifluoropropylsulfonyl)benzamide]",0.0%,−0.7%,,
"CCOc1cccc(-c2ccc(C(C)N3CCN(c4ccc(C(=O)NS(=O)(=O)CCC(F)(F)F)cc4)CC3)c(F)c2)c1 (stereo not drawn) [B2N099-01, 4-[4-[1-[4-(3-Ethoxyphenyl)-2-fluorophenyl]ethyl]piperazin-1-yl]-N-(3,3,3-trifluoropropylsulfonyl)benzamide]",0.0%,0.0%,,
"CCOc1cncc(-c2ccc(C(C)N3CCN(c4ccc(C(=O)NS(=O)(=O)CCC(F)(F)F)cc4)CC3)c(F)c2)c1 (stereo not drawn) [B2N100-01, 4-[4-[1-[4-(5-Ethoxypyridin-3-yl)-2-fluorophenyl]ethyl]piperazin-1-yl]-N-(3,3,3-trifluoropropylsulfonyl)benzamide]",0.0%,0.0%,,
"CCOc1cccc(-c2csc(C(=O)N3CCN(c4ccc(C(=O)NS(=O)(=O)c5ccc(NCCSc6ccccc6)c([N+](=O)[O-])c5)nn4)CC3)c2)c1 [B2Q001-01, 6-[4-[4-(3-Ethoxyphenyl)thiophene-2-carbonyl]piperazin-1-yl]-N-[3-nitro-4-(2-phenylsulfanylethylamino)phenyl]sulfonylpyridazine-3-carboxamide]",,,0.0%,0.0%

# More lines, now with the values ahead:
ASMS ratio (%) (n = 1),ASMS ratio (%) (n = 2),"ASMS ratio (%) n = 1 (AS-MS, mixture library, Bcl-2, replicate n = 1, ASMS Ratio(%)=(A−C)/B×100)","ASMS ratio (%) n = 2 (AS-MS, mixture library, Bcl-2, replicate n = 2, ASMS Ratio(%)=(A−C)/B×100)",Compound
0.0%,0.1%,,,CCOc1cncc(-c2ccccc2CN2CCN(c3ccc(C(=O)NS(=O)(=O)CCC(F)(F)F)nn3)CC2)c1 [B2N072-01]
0.0%,0.0%,,,"CCOc1cccc(-c2ccc(CN3CCN(c4ccc(C(=O)NS(=O)(=O)CCC(F)(F)F)nn4)CC3)cc2C)c1 [B2N073-01, 6-[4-[[4-(3-Ethoxyphenyl)-3-methylphenyl]methyl]piperazin-1-yl]-N-(3,3,3-trifluoropropylsulfonyl)pyridazine-3-carboxamide]"
0.0%,0.0%,,,"CCOc1cncc(-c2ccc(CN3CCN(c4ccc(C(=O)NS(=O)(=O)CCC(F)(F)F)nn4)CC3)c(CC)c2)c1 [B2N076-01, 6-[4-[[4-(5-Ethoxypyridin-3-yl)-2-ethylphenyl]methyl]piperazin-1-yl]-N-(3,3,3-trifluoropropylsulfonyl)pyridazine-3-carboxamide]"
0.0%,0.0%,,,"CCOc1cccc(-c2ccc(CN3CCN(c4ccc(C(=O)NS(=O)(=O)CCC(F)(F)F)nn4)CC3)cc2F)c1 [B2N077-01, 6-[4-[[4-(3-Ethoxyphenyl)-3-fluorophenyl]methyl]piperazin-1-yl]-N-(3,3,3-trifluoropropylsulfonyl)pyridazine-3-carboxamide]"
0.0%,0.0%,,,CCOc1cccc(-c2ccc(CN3CCN(c4ccc(C(=O)NS(=O)(=O)CCC(F)(F)F)nn4)CC3)c(OC)c2)c1 [B2N079-01]
0.0%,0.0%,,,CCOc1cncc(-c2ccc(CN3CCN(c4ccc(C(=O)NS(=O)(=O)CCC(F)(F)F)nn4)CC3)c(OC)c2)c1 [B2N080-01]
0.0%,0.0%,,,"CCOc1cccc(-c2cc(CN3CCN(c4ccc(C(=O)NS(=O)(=O)CCC(F)(F)F)nn4)CC3)cc(OCC)c2)c1 [B2N081-01, 6-[4-[[3-Ethoxy-5-(3-ethoxyphenyl)phenyl]methyl]piperazin-1-yl]-N-(3,3,3-trifluoropropylsulfonyl)pyridazine-3-carboxamide]"
0.0%,0.0%,,,"CCOc1cccc(-c2cc(CN3CCN(c4ccc(C(=O)NS(=O)(=O)CCC(F)(F)F)nn4)CC3)cc(OC(C)C)c2)c1 [B2N083-01, 6-[4-[[3-(3-Ethoxyphenyl)-5-propan-2-yloxyphenyl]methyl]piperazin-1-yl]-N-(3,3,3-trifluoropropylsulfonyl)pyridazine-3-carboxamide]"
0.0%,0.0%,,,CCOc1cccc(-c2cc(OC)c(CN3CCN(c4ccc(C(=O)NS(=O)(=O)CCC(F)(F)F)nn4)CC3)c(OC)c2)c1 [B2N085-01]
0.0%,0.0%,,,"CCOc1cncc(-c2cc(OC)c(CN3CCN(c4ccc(C(=O)NS(=O)(=O)CCC(F)(F)F)nn4)CC3)c(OC)c2)c1 [B2N086-01, 6-[4-[[4-(5-Ethoxypyridin-3-yl)-2,6-dimethoxyphenyl]methyl]piperazin-1-yl]-N-(3,3,3-trifluoropropylsulfonyl)pyridazine-3-carboxamide]"
0.0%,0.0%,,,CCOc1cccc(-c2cc(CN3CCN(c4ccc(C(=O)NS(=O)(=O)CCC(F)(F)F)nn4)CC3)cc(C(F)(F)F)c2)c1 [B2N087-01]
,0.0%,,,"CCOc1cccc(-c2cc(CN3CCN(c4ccc(C(=O)NS(=O)(=O)CCC(F)(F)F)nn4)CC3)cc(OC(F)(F)F)c2)c1 [B2N089-01, 6-[4-[[3-(3-Ethoxyphenyl)-5-(trifluoromethoxy)phenyl]methyl]piperazin-1-yl]-N-(3,3,3-trifluoropropylsulfonyl)pyridazine-3-carboxamide]"
0.0%,0.0%,,,"CCOc1cccc(-c2ccc(CN3CCN(c4ccc(C(=O)NS(=O)(=O)CCC(F)(F)F)nn4)CC3)c3ccccc23)c1 [B2N091-01, 6-[4-[[4-(3-Ethoxyphenyl)naphthalen-1-yl]methyl]piperazin-1-yl]-N-(3,3,3-trifluoropropylsulfonyl)pyridazine-3-carboxamide]"
0.0%,0.0%,,,CCOc1cncc(-c2ccc(CN3CCN(c4ccc(C(=O)NS(=O)(=O)CCC(F)(F)F)nn4)CC3)c3ccccc23)c1 [B2N092-01]
0.0%,,,,"CCOc1cccc(-c2csc(CN3CCN(c4ccc(C(=O)NS(=O)(=O)CCC(F)(F)F)nn4)CC3)c2)c1 [B2N093-01, 6-[4-[[4-(3-Ethoxyphenyl)thiophen-2-yl]methyl]piperazin-1-yl]-N-(3,3,3-trifluoropropylsulfonyl)pyridazine-3-carboxamide]"
0.0%,0.0%,,,"CCOc1cccc(C#Cc2ccccc2CN2CCN(c3ccc(C(=O)NS(=O)(=O)CCC(F)(F)F)nn3)CC2)c1 [B2N095-01, 6-[4-[[2-[2-(3-Ethoxyphenyl)ethynyl]phenyl]methyl]piperazin-1-yl]-N-(3,3,3-trifluoropropylsulfonyl)pyridazine-3-carboxamide]"
